What was measured:
[1] = test system: Primary human bronchial epithelial cells from a ΔF508 homozygous CF donor (CF-HBE cells); assay: TECC24 recording of CFTR-mediated transepithelial chloride transport, AUC fold over benchmark VX-809 @10 μM; type: cell-based; conditions: 48 hours incubation, AUC of forskolin-stimulated IEQ
In short: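 CF-HBE cells on inserts were treated with compound for 48 h at 36.5 °C, then recorded in current-clamp with benzamil 10 μM, forskolin 10 μM, and finally CFTR inhibitor-172 20 μM in pH 7.4 Hepes saline. Equivalent Cl− current AUC between forskolin and inhibitor addition is expressed as a ratio to VX-809 AUC: A <3, B 3–6, C 6–20.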

[2] = biological target: T1, Purified recombinant NBD1 (Homo sapiens, UniProt P13569); assay: Aggregation analysis using differential static light scattering (DSLS): thermal stability of NBD1; type: binding; conditions: NBD1 0.2 mg/ml; Tagg of compound well minus average Tagg of DMSO control wells
T1 construct: Purified recombinant NBD1 was produced using previously described methods; made in house
In short: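 Recombinant NBD1 at 0.2 mg/ml in Tris/NaCl/MgCl2 buffer with 2 mM ATP, 2 mM DTT, 1% glycerol, pH 7.6, was incubated with compound and heated at 1 °C/min to 70 °C while static light scattering was monitored. Tagg was taken from the curve inflection point and reported as ΔTagg relative to DMSO controls.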

T1 sequence (P13569 423-646 limits assumed): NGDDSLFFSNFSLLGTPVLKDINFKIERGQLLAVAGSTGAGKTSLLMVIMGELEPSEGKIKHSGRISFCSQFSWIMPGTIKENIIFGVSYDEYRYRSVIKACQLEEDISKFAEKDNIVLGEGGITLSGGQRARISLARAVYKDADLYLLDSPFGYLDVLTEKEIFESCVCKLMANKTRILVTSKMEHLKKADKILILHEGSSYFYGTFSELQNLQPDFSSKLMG

CN1CCC(C)(C)CCC(C)(c2cccc(CCC(=O)O)c2)c2cnc([nH]2)-c2cc(ccc2F)Oc2c(F)cc3[nH]ccc3c2CCC1=O (centres unmarked) [Compound 29, 3-[3-(23,29-Difluoro-6,9,9,12-tetramethyl-13-oxo-25-oxa-3,12,20,31-tetrazapentacyclo[24.3.1.12,5.016,24.017,21]hentriaconta-1(30),2,4,16,18,21,23,26,28-nonaen-6-yl)phenyl]propanoic acid]
TECC (test agent AUC divided by VX-809 AUC) [1]: B (a value between 3 and 6 is marked “B”)
DSLS (ΔTagg) [2]: C (a value greater than 10 °C and less than or equal to 25 °C is marked “C”)

CN1CCC(C)(C)CCC(c2cccc(CCC(=O)O)c2F)c2cnc([nH]2)-c2cc(ccc2F)Oc2c(F)cc3[nH]ccc3c2CCC1=O (centres unmarked) [Compound 30, 3-[3-(23,29-Difluoro-9,9,12-trimethyl-13-oxo-25-oxa-3,12,20,31-tetrazapentacyclo[24.3.1.12,5.016,24.017,21]hentriaconta-1(30),2,4,16,18,21,23,26,28-nonaen-6-yl)-2-fluoro-phenyl]propanoic acid]
TECC (test agent AUC divided by VX-809 AUC) [1]: A (a TECC value less than 3 is marked “A”)
DSLS (ΔTagg) [2]: B (a value above 5 °C and less than or equal to 10 °C is marked “B”)

CN1CCC(C)(C)CCC(c2ccccc2F)c2cnc([nH]2)-c2cc(ccc2F)Oc2c(F)cc3[nH]ccc3c2CCC1=O (centres unmarked) [Compound 31, 23,29-difluoro-6-(2-fluorophenyl)-9,9,12-trimethyl-25-oxa-3,12,20,31-tetrazapentacyclo[24.3.1.12,5.016,24.017,21]hentriaconta-1(30),2,4,16,18,21,23,26,28-nonaen-13-one]
TECC (test agent AUC divided by VX-809 AUC) [1]: A (a TECC value less than 3 is marked “A”)
DSLS (ΔTagg) [2]: A (an ΔTagg value less than or equal to 5 °C is marked “A”)

CN1CC(C)(C)CCC(C)(c2cccc(CCC(=O)O)c2)c2cnc([nH]2)-c2cc(ccc2F)Oc2c(F)cc3[nH]ccc3c2CCC1=O (centres unmarked) [Compound 33, 3-[3-(22,28-Difluoro-6,9,9,11-tetramethyl-12-oxo-24-oxa-3,11,19,30-tetrazapentacyclo[23.3.1.12,5.015,23.016,20]triaconta-1(29),2,4,15,17,20,22,25,27-nonaen-6-yl)phenyl]propanoic acid]
TECC (test agent AUC divided by VX-809 AUC) [1]: A (a TECC value less than 3 is marked “A”)
DSLS (ΔTagg) [2]: B (a value above 5 °C and less than or equal to 10 °C is marked “B”)

CN1CC2(CCCC(C)(c3cccc(CCC(=O)O)c3)c3cnc([nH]3)-c3cc(ccc3F)Oc3c(F)cc4[nH]ccc4c3CCC1=O)CC2 (centres unmarked) [Compound 34, 3-[3-(23,29-Difluoro-6,12-dimethyl-13-oxo-spiro[25-oxa-3,12,20,31-tetrazapentacyclo[24.3.1.12,5.016,24.017,21]hentriaconta-1(30),2,4,16,18,21,23,26,28-nonaene-10,1′-cyclopropane]-6-yl)phenyl]propanoic acid]
TECC (test agent AUC divided by VX-809 AUC) [1]: A (a TECC value less than 3 is marked “A”)
DSLS (ΔTagg) [2]: C (a value greater than 10 °C and less than or equal to 25 °C is marked “C”)

CN1CC2(CCCC(C)(c3ccccc3)c3cnc([nH]3)-c3cc(ccc3F)Oc3c(F)cc4[nH]ccc4c3CCC1=O)CC2 (centres unmarked) [Compound 35, 23,29-Difluoro-6,12-dimethyl-6-phenyl-spiro[25-oxa-3,12,20,31-tetrazapentacyclo[24.3.1.12,5.016,24.017,21]hentriaconta-1(30),2,4,16,18,21,23,26,28-nonaene-10,1′-cyclopropane]-13-one]
TECC (test agent AUC divided by VX-809 AUC) [1]: A (a TECC value less than 3 is marked “A”)
DSLS (ΔTagg) [2]: A (an ΔTagg value less than or equal to 5 °C is marked “A”)

CC1(c2cccc(CCC(=O)O)c2)CCCC2(CC2)CNC(=O)CCc2c(c(F)cc3[nH]ccc23)Oc2ccc(F)c(c2)-c2ncc1[nH]2 (centres unmarked) [Compound 36, 3-[3-(23,29-Difluoro-6-methyl-13-oxo-spiro[25-oxa-3,12,20,31-tetrazapentacyclo[24.3.1.12,5.016,24.017,21]hentriaconta-1(30),2,4,16,18,21,23,26,28-nonaene-10,1′-cyclopropane]-6-yl)phenyl]propanoic acid]
TECC (test agent AUC divided by VX-809 AUC) [1]: B (a value between 3 and 6 is marked “B”)
DSLS (ΔTagg) [2]: C (a value greater than 10 °C and less than or equal to 25 °C is marked “C”)

CC1(c2ccccc2)CCCC2(CC2)CNC(=O)CCc2c(c(F)cc3[nH]ccc23)Oc2ccc(F)c(c2)-c2ncc1[nH]2 (centres unmarked) [Compound 37, 23,29-Difluoro-6-methyl-6-phenyl-spiro[25-oxa-3,12,20,31-tetrazapentacyclo[24.3.1.12,5.016,24.017,21]hentriaconta-1(30),2,4,16,18,21,23,26,28-nonaene-10,1′-cyclopropane]-13-one]
TECC (test agent AUC divided by VX-809 AUC) [1]: A (a TECC value less than 3 is marked “A”)
DSLS (ΔTagg) [2]: A (an ΔTagg value less than or equal to 5 °C is marked “A”)

CN1CC(C)(C)CCCC(c2cccc(CCC(=O)O)c2)n2ccc(n2)-c2cc(ccc2F)Oc2c(F)cc3[nH]ccc3c2CCC1=O (centres unmarked) [Compound 38, 3-[3-(23,29-difluoro-10,10,12-trimethyl-13-oxo-25-oxa-5,12,20,31-tetrazapentacyclo[24.3.1.12,5.016,24.017,21]hentriaconta-1(30),2(31),3,16,18,21,23,26,28-nonaen-6-yl)phenyl]propanoic acid]
TECC (test agent AUC divided by VX-809 AUC) [1]: A (a TECC value less than 3 is marked “A”)
DSLS (ΔTagg) [2]: A (an ΔTagg value less than or equal to 5 °C is marked “A”)

CN1CC(C)(C)CCCC(c2ccccc2)n2ccc(n2)-c2cc(ccc2F)Oc2c(F)cc3[nH]ccc3c2CCC1=O (centres unmarked) [Compound 39, 23,29-difluoro-10,10,12-trimethyl-6-phenyl-25-oxa-5,12,20,31-tetrazapentacyclo[24.3.1.12,5.016,24.017,21]hentriaconta-1(30),2(31),3,16,18,21,23,26,28-nonaen-13-one]
TECC (test agent AUC divided by VX-809 AUC) [1]: A (a TECC value less than 3 is marked “A”)
DSLS (ΔTagg) [2]: A (an ΔTagg value less than or equal to 5 °C is marked “A”)

CN1CC(C)(C)CCCC(c2cccc(CCC(=O)O)c2)c2cnc([nH]2)-c2cc(ccc2F)Oc2c(F)cc3[nH]ccc3c2CCC1=O (centres unmarked) [Compound 41, 3-[3-(23,29-Difluoro-10,10,12-trimethyl-13-oxo-25-oxa-3,12,20,31-tetrazapentacyclo[24.3.1.12,5.016,24.017,21]hentriaconta-1(30),2,4,16,18,21,23,26,28-nonaen-6-yl)phenyl]propanoic acid]
TECC (test agent AUC divided by VX-809 AUC) [1]: B (a value between 3 and 6 is marked “B”)
DSLS (ΔTagg) [2]: B (a value above 5 °C and less than or equal to 10 °C is marked “B”)

CN1CC(C)(C)OCCC(C)(c2ccccc2)c2cnc([nH]2)-c2cc(ccc2F)Oc2c(F)cc3[nH]ccc3c2CCC1=O (centres unmarked) [Compound 43, 23,29-Difluoro-6,10,10,12-tetramethyl-6-phenyl-9,25-dioxa-3,12,20,31-tetrazapentacyclo[24.3.1.12,5.016,24.017,21]hentriaconta-1(30),2,4,16,18,21,23,26,28-nonaen-13-one]
TECC (test agent AUC divided by VX-809 AUC) [1]: A (a TECC value less than 3 is marked “A”)
DSLS (ΔTagg) [2]: A (an ΔTagg value less than or equal to 5 °C is marked “A”)

CN1CC(C)(C)CCCC(C)(c2cccc(CCC(=O)O)c2)c2nnc([nH]2)-c2cc(ccc2F)Oc2c(F)cc3[nH]ccc3c2CCC1=O (centres unmarked) [Compound 44, 3-[3-(23,29-Difluoro-6,10,10,12-tetramethyl-13-oxo-25-oxa-3,4,12,20,31-pentazapentacyclo[24.3.1.12,5.016,24.017,21]hentriaconta-1(30),2,4,16,18,21,23,26,28-nonaen-6-yl)phenyl]propanoic acid]
TECC (test agent AUC divided by VX-809 AUC) [1]: C (a value between 6 and 20 is marked “C”)
DSLS (ΔTagg) [2]: C (a value greater than 10 °C and less than or equal to 25 °C is marked “C”)

CC1(C)CCC(C)(c2cccc(CCC(=O)O)c2)c2cnc([nH]2)-c2cc(ccc2F)Oc2c(F)cc3[nH]ccc3c2CCNC(=O)OC1 (centres unmarked) [Compound 45, 3-[3-(23,29-Difluoro-6,9,9-trimethyl-12-oxo-11,25-dioxa-3,13,20,31-tetrazapentacyclo[24.3.1.12,5.016,24.017,21]hentriaconta-1(30),2,4,16(24),17(21),18,22,26,28-nonaen-6-yl)phenyl]propanoic acid]
TECC (test agent AUC divided by VX-809 AUC) [1]: B (a value between 3 and 6 is marked “B”)
DSLS (ΔTagg) [2]: C (a value greater than 10 °C and less than or equal to 25 °C is marked “C”)

CN1CC(C)(C)CCCC(C)(c2cccc(CCc3nnn[nH]3)c2)c2cnc([nH]2)-c2cc(ccc2F)Oc2c(F)cc3[nH]ccc3c2CCC1=O (centres unmarked) [Compound 52, 23,29-Difluoro-6,10,10,12-tetramethyl-6-[3-[2-(1H-tetrazol-5-yl)ethyl]phenyl]-25-oxa-3,12,20,31-tetrazapentacyclo[24.3.1.12,5.016,24.017,21]-hentriaconta-1(30),2,4,16,18,21,23,26,28-nonaen-13-one]
TECC (test agent AUC divided by VX-809 AUC) [1]: A (a TECC value less than 3 is marked “A”)
DSLS (ΔTagg) [2]: C (a value greater than 10 °C and less than or equal to 25 °C is marked “C”)

CN1CC(C)(C)CCCCC(C)(c2cccc(CCC(=O)O)c2)c2cnc([nH]2)-c2cc(ccc2F)Oc2c(F)cc3[nH]ccc3c2CCC1=O (centres unmarked) [Compound 61, 3-[3-(24,30-Difluoro-6,11,11,13-tetramethyl-14-oxo-26-oxa-3,13,21,32-tetrazapentacyclo[25.3.1.12,5.017,25.018,22]dotriaconta-1(31),2,4,17,19,22,24,27,29-nonaen-6-yl)phenyl]propanoic acid]
TECC (test agent AUC divided by VX-809 AUC) [1]: B (a value between 3 and 6 is marked “B”)
DSLS (ΔTagg) [2]: C (a value greater than 10 °C and less than or equal to 25 °C is marked “C”)

— patent publication US20250197420A1, “MACROCYCLIC COMPOUNDS, COMPOSITIONS, AND METHODS OF USING THEREOF” (Sionna Therapeutics Inc., priority 2022, published 2025)
